{"source": "patent US20230322822A1", "about": "“ARYL PHOSPHOROUS OXIDE COMPOUNDS AND USE THEREOF” (Chengdu Di'ao Jiuhong Pharmaceutical Factory, priority 2020, published 2023)", "key": {"[1]": {"assay": "Pharmacokinetic test in SD rats", "assay_type": "in vivo", "conditions": "male, Sprague-Dawley, rat, plasma, PO, 20 mg/kg", "procedure": "Six SD rats were taken, which were all male, and about 8-9 weeks old, weighing about 430 g/rat, and fasting but allowed to drink water for 18 hours.\nThe rats were divided into two groups, wherein the rats in group 1 were dosed with compound 2 and the rats in group 2 were dosed with control compound 4, both orally and intragastrically in a dose of 20 mg/kg. A lavage fluid was prepared using 70 mM citric acid buffer (pH 3.0) at an administration volume of 5 mL/kg.\n0.6 mL of blood (EDTA-2K anti-coagulated) was collected from rat orbits at 0.5, 1.5, 3, 4.5, 8, 12, 24, 36, 48 and 72 hours after the administration respectively. The plasma was separated and stored at −70° C., and the plasma samples were analyzed using liquid chromatography tandem mass spectrometry (LC-MS/MS). The plasma concentration-time data of the individual rates was analyzed using a non-compartmental model of DAS3.3.1 software and pharmacokinetic parameters of the test compounds were calculated."}, "[2]": {"tested_on": "BaF3 EML-4-ALK-L1196M cell line", "assay": "Cell anti-proliferation test 4 (CCK-8), BaF3 EML-4-ALK-L1196M", "assay_type": "cell-based", "conditions": "Ba/F3 EML4-ALK-L1196M, BaF3 EML-4-ALK-L1196M cells, CCK-8, 72 hours", "procedure": "BaF3 EML-4-ALK-L1196M cell line, brand: KYinno, article number: KC-0102\nCell Counting Kit-8 (CCK-8), brand: Targetmol, article number: C0005\n10 μL of the compound diluted in gradient was added to the cell plate to give final concentrations of the compounds as 500, 166.67, 55.56, 18.52, 6.17, 2.06, 0.69, 0.23 and 0.08 nM. • d."}}, "note": "Read-outs that look alike come from different tables or passages of the source."}
{"smiles": "CCc1cc(Nc2ncc(Br)c(Nc3ccc(C4CC4)cc3P(C)(C)=O)n2)c(OC)cc1N1CCC(N2CCN(C)CC2)CC1", "note": "[Control compound 4, reference compound]", "values": [{"measurement": "AUC(0-t)", "setting": "[1]", "value": 58500, "unit": "ng·h/mL"}, {"measurement": "Cmax", "setting": "[1]", "value": 1420, "unit": "ng/mL"}, {"measurement": "IC50", "setting": "[2]; first test, read-out: First test IC50", "value": 0.0815, "unit": "µM"}, {"measurement": "IC50", "setting": "[2]; second test, read-out: Second test IC50", "value": 0.0746, "unit": "µM"}]}
